Patent US5795907A, “Gastin and CCK receptor ligands” (James Black Foundation Limited, priority 1994, dated 1998)

Columns and labels:
CCKB receptor = target: T1, CCKB receptor (Mus musculus, UniProt P56481); assay: CCKB receptor radioligand binding assay in mouse cortical membranes ([125I]-CCK8S); settings: [125I]-CCK8S 200 pM, 150 min at 21±3°; for Ki: read-out: CCKB pKi (converted)
T1 construct: The cortex was dissected, weighed and homogenised in 40ml ice-cold buffer; tissue Charles River (supplier of the CD1 mice); host or cells: cerebral cortex membranes of male CD1 mice
T1 sequence (P56481 1-453): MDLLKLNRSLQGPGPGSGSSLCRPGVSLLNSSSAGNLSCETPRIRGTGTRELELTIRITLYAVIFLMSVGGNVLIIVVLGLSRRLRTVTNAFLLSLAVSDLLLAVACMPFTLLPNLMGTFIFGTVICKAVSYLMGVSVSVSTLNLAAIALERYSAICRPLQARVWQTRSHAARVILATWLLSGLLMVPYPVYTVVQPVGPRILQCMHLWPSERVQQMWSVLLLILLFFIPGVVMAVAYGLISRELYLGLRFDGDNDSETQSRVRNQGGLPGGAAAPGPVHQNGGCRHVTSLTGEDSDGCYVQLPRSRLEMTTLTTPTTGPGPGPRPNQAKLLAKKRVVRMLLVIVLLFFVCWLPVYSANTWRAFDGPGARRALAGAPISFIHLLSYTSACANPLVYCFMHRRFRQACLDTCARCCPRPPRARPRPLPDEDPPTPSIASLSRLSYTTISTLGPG
How it was run: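 Cortical membranes from male CD1 mice in HEPES buffer (pH 7.2; NaCl, KCl, MgCl2, EDTA, bacitracin) were incubated with competing compound and [125I]-CCK8S (added as a 200 pM solution) for 150 min at 21±3°. Non-specific binding was defined with L-365,260. Bound tracer was separated by GF/B filtration and counted by gamma counting.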

CCKA = target: T2, CCKA (Cavia porcellus, UniProt Q63931); assay: CCKA radioligand binding assay in guinea-pig pancreas membranes ([125I]-CCK8(S)); settings: PD134,308 present, 150 minutes at 21±3°; for Ki: read-out: CCKA pKi (converted)
T2 construct: The pancreatata were homogenised in 40 ml ice-cold HEPES buffer using a polytron; from tissue; host or cells: pancreas membranes of male Dunkin Hartley guinea-pigs
T2 sequence (Q63931 1-430): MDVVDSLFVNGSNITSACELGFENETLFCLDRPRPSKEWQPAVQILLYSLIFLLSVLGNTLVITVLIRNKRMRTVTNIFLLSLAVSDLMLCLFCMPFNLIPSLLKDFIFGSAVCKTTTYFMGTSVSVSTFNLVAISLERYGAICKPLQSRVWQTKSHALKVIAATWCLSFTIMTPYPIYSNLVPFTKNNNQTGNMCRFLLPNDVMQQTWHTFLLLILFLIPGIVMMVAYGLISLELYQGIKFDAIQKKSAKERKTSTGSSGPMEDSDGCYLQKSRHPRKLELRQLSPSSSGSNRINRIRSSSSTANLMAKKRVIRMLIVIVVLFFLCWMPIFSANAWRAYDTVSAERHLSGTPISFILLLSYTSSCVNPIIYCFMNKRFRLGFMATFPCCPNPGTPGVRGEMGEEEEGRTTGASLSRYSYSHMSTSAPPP
How it was run: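 Male guinea-pig pancreas membranes (1 mg/ml wet tissue in HEPES pH 7.2, suspension containing 0.375 μM PD134,308) were incubated 150 min at 21±3° with [125I]-CCK8(S) ([…] added solution) and competitor. Non-specific binding used 100 nM L-364,718 (added solution). Bound radioligand was measured by GF/B filtration and gamma counting.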

gastrin = target: T3, gastrin (Rattus norvegicus, UniProt P30553); assay: gastrin antagonist activity in an immature rat stomach assay (pentagastrin-stimulated acid secretion); settings: cumulative pentagastrin dose-response curves after 60 min with drug; for Kb: read-out: Gastrin pKB (converted)
T3 construct: The stomach was lowered into a jacketed organ bath containing 40 ml of buffered solution; from tissue; host or cells: isolated perfused whole stomach of immature rats (ca. 21 days old)
T3 sequence (P30553 1-452): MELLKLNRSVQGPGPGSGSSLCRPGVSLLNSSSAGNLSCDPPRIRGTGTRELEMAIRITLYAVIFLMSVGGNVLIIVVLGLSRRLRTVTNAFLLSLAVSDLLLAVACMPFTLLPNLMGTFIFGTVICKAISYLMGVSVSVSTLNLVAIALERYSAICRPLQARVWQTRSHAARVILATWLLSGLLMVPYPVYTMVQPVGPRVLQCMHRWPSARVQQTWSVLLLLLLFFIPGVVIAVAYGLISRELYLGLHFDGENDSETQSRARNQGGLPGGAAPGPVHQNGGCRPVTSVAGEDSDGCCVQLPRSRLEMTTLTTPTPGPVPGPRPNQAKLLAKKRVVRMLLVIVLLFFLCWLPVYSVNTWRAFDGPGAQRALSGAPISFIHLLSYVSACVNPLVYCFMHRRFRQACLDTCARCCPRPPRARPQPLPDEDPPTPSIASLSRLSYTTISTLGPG
Protocol: The compounds of the examples were also tested for gastrin antagonist activity in an immature rat stomach assay. The procedure was as follows:
The oesophagus of immature rats (33-50 g, ca. 21 days old) was ligated at the level of the cardiac sphincter and the duodenal sphincter was cannulated. The stomach was excised and flushed with ca. 1 ml of unbuffered physiological saline solution. The fundus was punctured and cannulated. A further 4-5 ml of unbuffered solution was flushed through the stomach to ensure the preparation was not leaking. The stomach was lowered into a jacketed organ bath containing 40 ml of buffered solution containing 3×10^-8 M 5-methylfurmethide, maintained at 37° and gassed vigorously with 95% O2 /5% CO2. The stomach was continuously perfused at a rate of 1 ml min^-1 with unbuffered solution gassed with 100% O2 with the perfusate passing over an internally referenced pH-electrode fixed 12 cm above the stomach.
After 120 min of stabilisation the drugs were added directly to the serosal solution in the organ bath and after a further 60 min cumulative pentagastrin dose-response curves were started. Changes in acid secretion were monitored and the curves analysed according to Black et.al., Br. J. Pharmacol., 1985, 86, 581.

Compound | Ki (CCKB receptor) | Ki (CCKA) | Kb (gastrin) | CCKB pKi (CCKB receptor) | CCKA pKi (CCKA) | Gastrin pKB (gastrin)
O=C(NCC12CC3CC(CC(C3)C1)C2)c1cc2[nH]ccc2cc1C(=O)N[C@@H](Cc1ccccc1)C(=O)Nc1cc(-c2nn[nH]n2)cc(-c2nn[nH]n2)c1 [Example 104, 5-(1S-(3,5-ditetrazolylphenylaminocarbonyl)-2-phenylethylaminocarbonyl)-6-(1-adamantanemethylaminocarbonyl)-indole] | 1.26 nM | 316 nM | 2.51 nM | – | – | –
O=C(O)c1cc(NC(=O)[C@H](Cc2ccccc2)NC(=O)c2cc3ccsc3cc2C(=O)NCC23CC4CC(CC(C4)C2)C3)cc(C(=O)O)c1 [Example 125, 5-(1S-(3,5-dicarboxyphenylaminocarbonyl)-2-phenylethylaminocarbonyl)-6-(1-adamantanemethylaminocarbonyl)-benzothiophene] | – | – | – | 8.9 | 5.7 | 9.4
O=C(O)c1cc(NC(=O)[C@H](Cc2ccccc2)NC(=O)c2ccc3[nH]cnc3c2C(=O)NCC23CC4CC(CC(C4)C2)C3)cc(C(=O)O)c1 [Example 112, 5-(1S-(3,5-dicarboxyphenylaminocarbonyl)-2-phenylethylaminocarbonyl)-4-(1-adamantanemethylaminocarbonyl)-benzimidazole] | – | – | – | 8.1 | < 5.0 | 8.2
C[C@H](NC(=O)c1cc2cc[nH]c2cc1C(=O)NCC12CC3CC(CC(C3)C1)C2)C(=O)Nc1cc(C(=O)O)cc(C(=O)O)c1 [Example 47, 5-(1S-(3,5-dicarboxyphenylaminocarbonyl)-ethylaminocarbonyl)-6-(1-adamantanemethylaminocarbonyl)-indole] | 158 nM | 6310 nM | 5.01 nM | – | – | –
O=C(O)c1cccc(NC(=O)[C@H](Cc2ccccc2)NC(=O)c2cc3[nH]cnc3cc2C(=O)NCC23CC4CC(CC(C4)C2)C3)c1 [Example 79, 5-(1S-(3-carboxyphenylaminocarbonyl)-2-phenylethylaminocarbonyl)-6-(1-adamantanemethylaminocarbonyl)-benzimidazole] | 20 nM | 1000 nM | 100 nM | – | – | –
CC(C)(C)NS(=O)(=O)c1cc(NC(=O)[C@H](Cc2ccccc2)NC(=O)c2cc3cc[nH]c3cc2C(=O)NCC23CC4CC(CC(C4)C2)C3)cc(S(=O)(=O)NC(C)(C)C)c1 [Example 95, 5-(1S-(3,5-di-tert-butylaminosulphonylphenylaminocarbonyl)-2-phenylethylaminocarbonyl)-6-(1-adamantanemethylaminocarbonyl)-indole] | – | – | – | 5.9 | 5.8 | 5.9
O=C(O)c1cc(NC(=O)[C@H](Cc2ccccc2)NC(=O)c2cc3[nH]cnc3cc2C(=O)NCC2CCCCCC2)cc(C(=O)O)c1 [Example 62, 5-(1S-(3,5-dicarboxyphenylaminocarbonyl)-2-phenylethylaminocarbonyl)-6-(1-cycloheptanemethylaminocarbonyl)-benzimidazole] | 15.8 nM | 3980 nM | 6.31 nM | – | – | –
O=C(NCC12CC3CC(CC(C3)C1)C2)c1cc2ccccc2cc1C(=O)N1CCC[C@H]1C(=O)O [Example 4, 2-(2S-carboxypyrrolidino-carbonyl)-3-(1-adamantanemethylaminocarbonyl)-naphthalene] | 3160 nM | 3980 nM | 501 nM | – | – | –
5-(1S-(3,5-dicarboxyphenylaminocarbonyl)-2-phenylethylaminocarbonyl)-6-(1-adamantanemethylaminocarbonyl)-benzofuran [Example 122] | – | – | – | 8.3 | 5.4 | 9.1
5-(1S-(3,5-dicarboxyphenylaminocarbonyl)-2-(2-fluorophenyl)ethylaminocarbonyl)-6-(1-adamantanemethylaminocarbonyl)-indole and regioisomer with substituents at positions 5 and 6 reversed [Example 27] | – | – | – | 8.5 | 5.6 | 9.2
CN(O)C(=O)c1cc(NC(=O)[C@H](Cc2ccccc2)NC(=O)c2cc3cc[nH]c3cc2C(=O)NCC23CC4CC(CC(C4)C2)C3)cc(C(=O)N(C)O)c1 [Example 103, 5-(1S-(3,5-dihydroxy-N-(methyl)aminocarbonylphenylaminocarbonyl)-2-phenylethylaminocarbonyl)-6-(1-adamantanemethylaminocarbonyl)-indole] | – | – | – | 7.0 | 5.2 | 7.8
5-(1R-(3,5-dicarboxyphenylaminocarbonyl)-2-phenylethylaminocarbonyl)-6-(1-adamantanemethylaminocarbonyl)-indole and regioisomer with substituents at positions 5 and 6 reversed [Example 29] | – | – | – | 8.1 | 5.4 | 9.2
Cn1cnc2cc(C(=O)N[C@@H](Cc3ccccc3)C(=O)Nc3cc(C(=O)O)cc(C(=O)O)c3)c(C(=O)NCC34CC5CC(CC(C5)C3)C4)cc21 [Example 74, N-methyl-5-(1S-(3,5-dicarboxyphenylaminocarbonyl)-2-phenylethylaminocarbonyl)-6-(1-adamantanemethylaminocarbonyl)-benzimidazole] | – | – | – | 7.6 | 5.3 | 9.0
5-(1S-(3,5-dicarboxyphenylaminocarbonyl)-2-phenylethylaminocarbonyl)-6-(1-adamantanemethylaminocarbonyl)-2,3-dihydro-benzofuran [Example 123] | – | – | – | 7.9 | 6.3 | 8.5
O=C(NO)c1cc(NC(=O)[C@H](Cc2ccccc2)NC(=O)c2cc3cc[nH]c3cc2C(=O)NCC23CC4CC(CC(C4)C2)C3)cc(C(=O)NO)c1 [Example 34, 5-(1S-(3,5-dihydroxyaminocarbonylphenylaminocarbonyl)-2-phenylethylaminocarbonyl)-6-(1-adamantanemethylaminocarbonyl)-indole] | 7.94 nM | 794 nM | 2 nM | – | – | –
